Test results taken from US20210298306A1, “PESTICIDALLY ACTIVE AZOLE-AMIDE COMPOUNDS” (SYNGENTA PARTICIPATIONS AG, priority 2018, published 2021).

Columns and labels:
Format in all cases: in vivo
Diabrotica balteata = assay: Example B1: Diabrotica balteata (corn root worm), maize sprouts sprayed, L2 larvae; conditions: 96 h, application rate 200 ppm, 4 days after infestation, read-out: effect in at least one of the two categories (mortality or growth inhibition)
Protocol: Example B1: Diabrotica Balteata (Corn Root Worm)
Maize sprouts placed onto an agar layer in 24-well microtiter plates were treated with aqueous test solutions prepared from 10,000 ppm DMSO stock solutions by spraying. After drying, the plates were infested with L2 larvae (6 to 10 per well). The samples were assessed for mortality and growth inhibition in comparison to untreated samples 4 days after infestation.
(§1) The following compounds gave an effect of at least 80% in at least one of the two categories (mortality or growth inhibition) at an application rate of 200 ppm: […]

Spodoptera littoralis [1] = assay: Example B8: Spodoptera littoralis (Egyptian cotton leaf worm), uptake by lettuce roots from agar, eggs; conditions: 144 h, test rate 12.5 ppm, 6 days after infestation, lettuce root uptake, read-out: effect in at least one of the three categories (mortality, anti-feeding, or growth inhibition)
Excerpt: Example B8: Spodoptera littoralis (Egyptian Cotton Leaf Worm)
Test compounds were applied by pipette from 10,000 ppm DMSO stock solutions into 24-well plates and mixed with agar. Lettuce seeds were placed onto the agar and the multi well plate was closed by another plate which contained also agar. After 7 days the compound was absorbed by the roots and the lettuce grew into the lid plate. The lettuce leaves were then cut off into the lid plate. Spodoptera eggs were pipetted through a plastic stencil onto a humid gel blotting paper and the lid plate was closed with it. The samples were assessed for mortality, anti-feedant effect and growth inhibition in comparison to untreated samples 6 days after infestation.
The following compounds gave an effect of at least 80% in at least one of the three categories (mortality, anti-feeding, or growth inhibition) at a test rate of 12.5 ppm: […]

Myzus persicae [2] = assay: Example B6: Myzus persicae (green peach aphid), intrinsic activity, sucrose solution, 24-well; conditions: 120 h, test rate 12 ppm, 5 days after infestation
Excerpt: Example B6: Myzus persicae (Green Peach Aphid). Intrinsic Activity
Test compounds prepared from 10,000 ppm DMSO stock solutions were applied by pipette into 24-well microtiter plates and mixed with sucrose solution. The plates were closed with a stretched Parafilm. A plastic stencil with 24 holes was placed onto the plate and infested pea seedlings were placed directly on the Parafilm. The infested plate was closed with a gel blotting paper and another plastic stencil and then turned upside down. The samples were assessed for mortality 5 days after infestation.

Spodoptera littoralis [3] = assay: Example B7: Spodoptera littoralis (Egyptian cotton leaf worm), cotton leaf discs sprayed, L1 larvae; conditions: foliar, 72 h, application rate 200 ppm, 3 days after infestation, read-out: control in at least one of the categories (mortality, anti-feedant effect, or growth inhibition)
Protocol: Example B7: Spodoptera littoralis (Egyptian Cotton Leaf Worm)
Cotton leaf discs were placed onto agar in 24-well microtiter plates and sprayed with aqueous test solutions prepared from 10,000 ppm DMSO stock solutions. After drying the leaf discs were infested with five L1 larvae. The samples were assessed for mortality, anti-feeding effect, and growth inhibition in comparison to untreated samples 3 days after infestation. Control of Spodoptera littoralis by a test sample is given when at least one of the categories mortality, anti-feedant effect, and growth inhibition is higher than the untreated sample.

Thrips tabaci = assay: Example B9: Thrips tabaci (onion thrips), feeding/contact activity, sunflower leaf discs; conditions: foliar, 144 h; application rate 200 ppm; 6 days after infestation; Thrips tabaci mixed ages
Protocol: Example B9: Thrips tabaci (Onion Thrips) Feeding/Contact Activity
Sunflower leaf discs were placed on agar in 24-well microtiter plates and sprayed with aqueous test solutions prepared from 10,000 ppm DMSO stock solutions. After drying the leaf discs were infested with a thrips population of mixed ages. The samples were assessed for mortality 6 days after infestation.

Chilo suppressalis = assay: Example B3: Chilo suppressalis (striped rice stemborer), artificial diet, L2 larvae; conditions: 144 h, application rate 200 ppm, 6 days after infestation, read-out: control in at least one of the categories (mortality, anti-feedant effect, or growth inhibition)
Protocol: Example B3: Chilo suppressalis (Striped Rice Stemborer)
24-well microtiter plates with artificial diet were treated with aqueous test solutions prepared from 10,000 ppm DMSO stock solutions by pipetting. After drying, the plates were infested with L2 larvae (6-8 per well). The samples were assessed for mortality, anti-feeding effect, and growth inhibition in comparison to untreated samples 6 days after infestation. Control of Chilo suppressalis by a test sample is given when at least one of the categories mortality, anti-feedant effect, and growth inhibition is higher than the untreated sample.

Myzus persicae [4] = assay: Example B5: Myzus persicae (green peach aphid), feeding/contact activity, sunflower leaf discs; conditions: foliar, 144 h, application rate 200 ppm, 6 days after infestation, Myzus persicae mixed ages
Protocol: Example B5: Myzus persicae (Green Peach Aphid):Feeding/Contact Activity
Sunflower leaf discs were placed onto agar in a 24-well microtiter plate and sprayed with aqueous test solutions prepared from 10,000 ppm DMSO stock solutions. After drying, the leaf discs were infested with an aphid population of mixed ages. The samples were assessed for mortality 6 days after infestation.

Plutella xylostella [5] = assay: Example B4: Plutella xylostella (diamond back moth), artificial diet, 24-well, eggs; conditions: 192 h, application rate 200 ppm, 8 days after infestation, read-out: effect in at least one of the two categories (mortality or growth inhibition)
Protocol: Example B4: Plutella xylostella (Diamond Back Moth)
24-well microtiter plates with artificial diet were treated with aqueous test solutions prepared from 10,000 ppm DMSO stock solutions by pipetting. After drying, Plutella eggs were pipetted through a plastic stencil onto a gel blotting paper and the plate was closed with it. The samples were assessed for mortality and growth inhibition in comparison to untreated samples 8 days after infestation.
as §1

Euschistus heros = assay: Example B2: Euschistus heros (neotropical brown stink bug), soybean leaves sprayed, N2 nymphs; conditions: 120 h, application rate 200 ppm, 5 days after infestation, read-out: effect in at least one of the two categories (mortality or growth inhibition)
Protocol: Example B2: Euschistus heros (Neotropical Brown Stink Bug)
Soybean leaves on agar in 24-well microtiter plates were sprayed with aqueous test solutions prepared from 10,000 ppm DMSO stock solutions. After drying the leaves were infested with N2 nymphs. The samples were assessed for mortality and growth inhibition in comparison to untreated samples 5 days after infestation.
as §1

Myzus persicae [6] = assay: Example B10: Myzus persicae (green peach aphid), sucrose solution, 96-well; conditions: 120 h, application rate 50 ppm, 5 days after infestation
Excerpt: Example B10: Myzus persicae (Green Peach Aphid)
Test compounds prepared from 10,000 ppm DMSO stock solutions were applied by a liquid handling robot into 96-well microtiter plates and mixed with a sucrose solution. Parafilm was stretched over the 96-well microtiter plate and a plastic stencil with 96 holes was placed onto the plate. Aphids were sieved into the wells directly onto the Parafilm. The infested plates were closed with a gel blotting card and a second plastic stencil and then turned upside down. The samples were assessed for mortality 5 days after infestation.

Plutella xylostella [7] = assay: Example B11: Plutella xylostella (diamondback moth), artificial diet, 96-well, eggs; conditions: 216 h, application rate 500 ppm, 9 days after infestation
Protocol: Example B11: Plutella xylostella (Diamondback Moth)
96-well microtiter plates containing artificial diet were treated with aqueous test solutions, prepared from 10,000 ppm DMSO stock solutions, by a liquid handling robot. After drying, eggs (˜30 per well) were infested onto a netted lid which was suspended above the diet. The eggs hatch and L1 larvae move down to the diet. The samples were assessed for mortality 9 days after infestation.
The following compounds gave an effect of at least 80% average mortality at an application rate of 500 ppm: […]

CC(c1ncnn1-c1ncccn1)N(CC1CC1)C(=O)c1cc(OC(F)F)cc(C(F)(F)F)c1 (stereo not drawn) [P2, N-(cyclopropylmethyl)-3-(difluoromethoxy)-N-[1-(2-pyrimidin-2-yl-1,2,4-triazol-3-yl)ethyl]-5-(trifluoromethyl) benzamide]
≥ 80%: percent effect (mortality or growth inhibition) at 200 ppm (Diabrotica balteata) | percent effect (mortality, anti-feeding or growth inhibition) at 12.5 ppm (Spodoptera littoralis [1]) | mortality at 12 ppm (Myzus persicae [2]) | percent control (mortality, anti-feedant effect or growth inhibition) at 200 ppm (Spodoptera littoralis [3]) | mortality at 200 ppm (Thrips tabaci) | percent control (mortality, anti-feedant effect or growth inhibition) at 200 ppm (Chilo suppressalis) | mortality at 200 ppm (Myzus persicae [4]) | percent effect (mortality or growth inhibition) at 200 ppm (Plutella xylostella [5]) | percent effect (mortality or growth inhibition) at 200 ppm (Euschistus heros)

CC(c1ncnn1-c1ncccn1)N(CC1CC1)C(=O)c1cc(OC(F)(F)F)cc(C(F)(F)F)c1 (stereo not drawn) [P4, N-(cyclopropylmethyl)-N-[1-(2-pyrimidin-2-yl-1,2,4-triazol-3-yl)ethyl]-3-(trifluoromethoxy)-5-(trifluoromethyl) benzamide]
≥ 80%: percent effect (mortality or growth inhibition) at 200 ppm (Diabrotica balteata) | mortality at 12 ppm (Myzus persicae [2]) | percent control (mortality, anti-feedant effect or growth inhibition) at 200 ppm (Spodoptera littoralis [3]) | percent control (mortality, anti-feedant effect or growth inhibition) at 200 ppm (Chilo suppressalis) | mortality at 200 ppm (Myzus persicae [4]) | percent effect (mortality or growth inhibition) at 200 ppm (Plutella xylostella [5]) | percent effect (mortality or growth inhibition) at 200 ppm (Euschistus heros)

CC(c1ncnn1-c1ncccn1)N(CC1CC1)C(=O)c1cc(SC(F)(F)F)cc(C(F)(F)F)c1 (stereo not drawn) [P5, N-(cyclopropylmethyl)-N-[1-(2-pyrimidin-2-yl-1,2,4-triazol-3-yl)ethyl]-3-(trifluoromethyl)-5-(trifluoromethylsulfanyl) benzamide]
≥ 80%: percent effect (mortality or growth inhibition) at 200 ppm (Diabrotica balteata) | percent effect (mortality, anti-feeding or growth inhibition) at 12.5 ppm (Spodoptera littoralis [1]) | mortality at 12 ppm (Myzus persicae [2]) | percent control (mortality, anti-feedant effect or growth inhibition) at 200 ppm (Spodoptera littoralis [3]) | mortality at 200 ppm (Thrips tabaci) | percent control (mortality, anti-feedant effect or growth inhibition) at 200 ppm (Chilo suppressalis) | percent effect (mortality or growth inhibition) at 200 ppm (Plutella xylostella [5]) | percent effect (mortality or growth inhibition) at 200 ppm (Euschistus heros)

CC(NC(=O)c1cc(OC(F)F)cc(C(F)(F)F)c1)c1ncnn1-c1ncccn1 (stereo not drawn) [P8, 3-(difluoromethoxy)-N-[1-(2-pyrimidin-2-yl-1,2,4-triazol-3-yl)ethyl]-5-(trifluoromethyl) benzamide]
≥ 80%: percent effect (mortality or growth inhibition) at 200 ppm (Diabrotica balteata) | percent effect (mortality, anti-feeding or growth inhibition) at 12.5 ppm (Spodoptera littoralis [1]) | mortality at 12 ppm (Myzus persicae [2]) | percent control (mortality, anti-feedant effect or growth inhibition) at 200 ppm (Spodoptera littoralis [3]) | mortality at 200 ppm (Thrips tabaci) | mortality at 200 ppm (Myzus persicae [4]) | percent effect (mortality or growth inhibition) at 200 ppm (Plutella xylostella [5]) | percent effect (mortality or growth inhibition) at 200 ppm (Euschistus heros)

CC(NC(=O)c1cc(OCC(F)(F)F)cc(C(F)(F)F)c1)c1ncnn1-c1ncccc1F (stereo not drawn) [P14, N-[1-[2-(3-fluoro-2-pyridyl)-1,2,4-triazol-3-yl]ethyl]-3-(2,2,2-trifluoroethoxy)-5-(trifluoromethyl) benzamide]
≥ 80%: percent effect (mortality or growth inhibition) at 200 ppm (Diabrotica balteata) | mortality at 50 ppm (Myzus persicae [6]) | percent control (mortality, anti-feedant effect or growth inhibition) at 200 ppm (Spodoptera littoralis [3]) | mortality at 500 ppm (Plutella xylostella [7]) | percent effect (mortality or growth inhibition) at 200 ppm (Plutella xylostella [5]) | percent effect (mortality or growth inhibition) at 200 ppm (Euschistus heros)

CC(c1ncnn1-c1ncccn1)N(CC1CC1)C(=O)c1cc(SC(F)F)cc(C(F)(F)F)c1 (stereo not drawn) [P18, N-(cyclopropylmethyl)-3-(difluoromethylsulfanyl)-N-[1-(2-pyrimidin-2-yl-1,2,4-triazol-3-yl)ethyl]-5-(trifluoromethyl) benzamide]
≥ 80%: percent effect (mortality or growth inhibition) at 200 ppm (Diabrotica balteata) | mortality at 12 ppm (Myzus persicae [2]) | mortality at 50 ppm (Myzus persicae [6]) | mortality at 200 ppm (Thrips tabaci) | mortality at 500 ppm (Plutella xylostella [7]) | mortality at 200 ppm (Myzus persicae [4]) | percent effect (mortality or growth inhibition) at 200 ppm (Plutella xylostella [5]) | percent effect (mortality or growth inhibition) at 200 ppm (Euschistus heros)

CC(NC(=O)c1cc(OC(F)(F)F)cc(C(F)(F)F)c1)c1ncnn1-c1ncccn1 (stereo not drawn) [P19, N-[1-(2-pyrimidin-2-yl-1,2,4-triazol-3-yl)ethyl]-3-(trifluoromethoxy)-5-(trifluoromethyl) benzamide]
≥ 80%: percent effect (mortality or growth inhibition) at 200 ppm (Diabrotica balteata) | mortality at 12 ppm (Myzus persicae [2]) | mortality at 50 ppm (Myzus persicae [6]) | percent control (mortality, anti-feedant effect or growth inhibition) at 200 ppm (Spodoptera littoralis [3]) | mortality at 500 ppm (Plutella xylostella [7]) | percent control (mortality, anti-feedant effect or growth inhibition) at 200 ppm (Chilo suppressalis) | mortality at 200 ppm (Myzus persicae [4]) | percent effect (mortality or growth inhibition) at 200 ppm (Plutella xylostella [5]) | percent effect (mortality or growth inhibition) at 200 ppm (Euschistus heros)

CC(NC(=O)c1cc(OCC(F)F)cc(C(F)(F)F)c1)c1ncnn1-c1ncccn1 (stereo not drawn) [P20, 3-(2,2-difluoroethoxy)-N-[1-(2-pyrimidin-2-yl-1,2,4-triazol-3-yl)ethyl]-5-(trifluoromethyl) benzamide]
≥ 80%: mortality at 12 ppm (Myzus persicae [2]) | mortality at 50 ppm (Myzus persicae [6]) | percent control (mortality, anti-feedant effect or growth inhibition) at 200 ppm (Spodoptera littoralis [3]) | mortality at 500 ppm (Plutella xylostella [7]) | percent control (mortality, anti-feedant effect or growth inhibition) at 200 ppm (Chilo suppressalis) | mortality at 200 ppm (Myzus persicae [4]) | percent effect (mortality or growth inhibition) at 200 ppm (Plutella xylostella [5]) | percent effect (mortality or growth inhibition) at 200 ppm (Euschistus heros)
